Reference: paper PMC6990627 (ACS Omega, 2020)
“And” between values parts separate entries of the source, which are not always exact repeats. Identical values can stand only once. Counter-ions that a name gives are not always drawn. Like-named read-outs stand apart in the source and are kept apart here.

Experiments:
eqBChE [1] = biological target: T1, eqBChE (Equus caballus, UniProt P81908); assay: Ellman assay, eqBChE inhibition; type: biochemical, equine; conditions: screened at 10 and 100 μM
AChE = conditions: read-out: AChE IC50, cited from earlier work
EeAChE = EeAChE (Electrophorus electricus, UniProt O42275); assay: Ellman assay, EeAChE inhibition; type: biochemical; conditions: average of three determinations
Sequence of EeAChE (O42275 24-633): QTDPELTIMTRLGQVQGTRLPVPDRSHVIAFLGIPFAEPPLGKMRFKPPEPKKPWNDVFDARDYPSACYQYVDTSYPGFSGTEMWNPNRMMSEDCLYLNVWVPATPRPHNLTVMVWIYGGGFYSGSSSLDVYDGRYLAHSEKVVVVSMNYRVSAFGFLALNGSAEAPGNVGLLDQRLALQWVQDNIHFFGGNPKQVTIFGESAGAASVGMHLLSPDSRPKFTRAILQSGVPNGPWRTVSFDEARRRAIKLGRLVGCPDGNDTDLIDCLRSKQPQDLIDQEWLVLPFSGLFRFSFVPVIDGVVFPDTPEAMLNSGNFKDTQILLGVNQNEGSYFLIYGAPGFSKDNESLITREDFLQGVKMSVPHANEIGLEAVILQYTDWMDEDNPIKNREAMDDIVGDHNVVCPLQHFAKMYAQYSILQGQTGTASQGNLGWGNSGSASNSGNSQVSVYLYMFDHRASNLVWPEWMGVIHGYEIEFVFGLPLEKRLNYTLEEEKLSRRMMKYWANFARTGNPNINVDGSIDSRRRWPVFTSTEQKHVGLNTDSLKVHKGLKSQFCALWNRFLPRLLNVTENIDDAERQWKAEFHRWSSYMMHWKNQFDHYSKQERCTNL

eqBChE [2] = biological target: T1, eqBChE; assay: Enzyme kinetics; type: biochemical, equine; conditions: Lineweaver-Burk plot

T1 sequence (P81908 whole entry): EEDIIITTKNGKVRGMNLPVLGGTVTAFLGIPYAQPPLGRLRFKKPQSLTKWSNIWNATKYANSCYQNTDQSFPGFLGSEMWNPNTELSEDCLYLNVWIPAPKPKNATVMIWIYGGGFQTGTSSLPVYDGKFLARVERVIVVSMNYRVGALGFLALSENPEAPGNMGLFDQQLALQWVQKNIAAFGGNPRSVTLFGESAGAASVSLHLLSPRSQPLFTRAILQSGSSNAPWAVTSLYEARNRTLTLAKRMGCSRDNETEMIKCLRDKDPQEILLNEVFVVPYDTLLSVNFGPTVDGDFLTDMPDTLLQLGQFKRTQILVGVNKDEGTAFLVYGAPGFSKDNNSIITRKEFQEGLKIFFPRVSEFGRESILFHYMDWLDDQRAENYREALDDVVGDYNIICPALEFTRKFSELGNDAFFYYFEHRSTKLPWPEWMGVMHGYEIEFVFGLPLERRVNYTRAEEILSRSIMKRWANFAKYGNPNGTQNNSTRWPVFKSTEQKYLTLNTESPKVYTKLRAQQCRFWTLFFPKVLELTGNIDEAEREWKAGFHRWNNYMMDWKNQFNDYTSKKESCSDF

Cc1cc(O)c2c(c1)C(=O)c1cccc(O)c1C2=O [chrysophanol]
activity against BChE (in words) (eqBChE [1]): weakly active | IC50 (AChE; ref 19): 68.6 µM | IC50 (AChE; ref 20): 75.8 µM | IC50 (EeAChE): 34 µM and 33.7 µM

COc1cc2c(cc1OC)C(=O)C(CC1CCN(Cc3ccccc3)CC1)C2 (stereo not drawn) [donepezil HCl, donepezil hydrochloride]
type of inhibition, eqBChE (eqBChE [2]): noncompetitive

COc1cc(O)c2c(c1)C(=O)c1cc(C)cc(O)c1C2=O [physcion]
activity against BChE (in words) (eqBChE [1]): weakly active | IC50 (AChE; ref 19): 8.25 µM | IC50 (EeAChE): 12 µM and 12.2 µM

Cc1cc(O)c2c(c1)C(=O)c1cc(O)cc(O)c1C2=O [emodin]
activity against BChE (in words) (eqBChE [1]): weakly active | IC50 (AChE; ref 19): 9.17 µM | IC50 (AChE; ref 20): 21.8 µM | IC50 (EeAChE): 15 µM and 15.2 µM
